Results reported in patent publication US10945989B2, “Perinatal treatment with a flavonoid agonist of the TrkB receptor for BDNF rescues neurogenesis and behavior in the Ts65Dn mouse model of DS” (ALMA MATER STUDIORUM—Universita' di Bologna, priority 2017, dated 2021).

Columns and labels:
[1] = test system: granule cells of the dentate gyrus; assay: Stereology of the DG: total number of granule cells; type: in vivo, mouse; conditions: 5.0 mg/kg P3-P15
Procedure: Euploid and Ts65Dn mice received a daily subcutaneous injection (at 9-10 am) of 7,8-DHF (5.0 mg/kg in vehicle: PBS with 1% DMSO) or vehicle from postnatal day 3 (P3) to postnatal day 15. This timing was chosen because it corresponds to that previously used to test the effects of fluoxetine and other pharmacotherapies in the neonate Ts65Dn mouse (Bianchi et al., 2010b; Giacomini et al., 2015; Stagni et al., 2016). Mice that received 7,8-DHF will be called “treated mice” (treated euploid mice: n=25; treated Ts65Dn mice: n=15). Mice that received the vehicle will be called “untreated mice” (untreated euploid mice: n=35; untreated Ts65Dn mice: n=21). […]
Unbiased stereology was performed on Hoechst-stained sections from P15 mice. […] Granule cell nuclei were counted with a ×64 oil objective (1.4 NA). Granule cell nuclei intersecting the uppermost focal plane and intersecting the exclusion lines of the count frame were not counted. […]
where Q is the number of particles counted in the disectors, dis is the number of disectors and Vdis is the volume of the disector. For calculation of Vdis the disector height was corrected for section shrinkage in the z-plane (Dorph Petersen et al., 2001) according to the formula: h=counting thickness×(original thickness/measured thickness). The section thickness was measured during neuron counting at different random locations. […]

[2] = test system: dendritic spines of granule neurons; assay: Golgi staining: dendritic spine density of granule cells; type: in vivo, mouse; conditions: 5.0 mg/kg P3-P15
Procedure: Euploid and Ts65Dn mice received a daily subcutaneous injection (at 9-10 am) of 7,8-DHF (5.0 mg/kg in vehicle: PBS with 1% DMSO) or vehicle from postnatal day 3 (P3) to postnatal day 15. This timing was chosen because it corresponds to that previously used to test the effects of fluoxetine and other pharmacotherapies in the neonate Ts65Dn mouse (Bianchi et al., 2010b; Giacomini et al., 2015; Stagni et al., 2016). Mice that received 7,8-DHF will be called “treated mice” (treated euploid mice: n=25; treated Ts65Dn mice: n=15). Mice that received the vehicle will be called “untreated mice” (untreated euploid mice: n=35; untreated Ts65Dn mice: n=21). […] The brains were excised and cut along the midline. […]
In Golgi-stained sections from the DG of P15 mice, spines of granule cells were counted using a 100× oil immersion objective lens (1.4 NA). […] For each neuron, 2-3 segments were analyzed in the outer and inner half of the molecular layer, respectively. For each animal, spines were counted in at least 8 neurons. The length of each sampled dendritic segment was determined by tracing its profile and the number of spines was counted manually. The linear spine density was calculated by dividing the total number of spines by the length of the dendritic segment. Spine density was expressed as number of spines per 100 μm dendrite.

[3] = test system: TrkB receptor (TrkB-FL, p-TrkB-FL, TrkB-T1); assay: Western blot of hippocampal homogenates: TrkB receptors; type: in vivo, mouse
Procedure: Euploid and Ts65Dn mice received a daily subcutaneous injection (at 9-10 am) of 7,8-DHF (5.0 mg/kg in vehicle: PBS with 1% DMSO) or vehicle from postnatal day 3 (P3) to postnatal day 15. This timing was chosen because it corresponds to that previously used to test the effects of fluoxetine and other pharmacotherapies in the neonate Ts65Dn mouse (Bianchi et al., 2010b; Giacomini et al., 2015; Stagni et al., 2016). Mice that received 7,8-DHF will be called “treated mice” (treated euploid mice: n=25; treated Ts65Dn mice: n=15). Mice that received the vehicle will be called “untreated mice” (untreated euploid mice: n=35; untreated Ts65Dn mice: n=21). […] The brains were excised and cut along the midline. The left hemisphere of a group of mice was fixed by immersion in PFA 4% and frozen, and the left hemisphere of another group of mice was used for Golgi staining. The right hemispheres of all mice was kept at −80° C. and used for western blotting.
In homogenates of the hippocampal formation of P15 mice, total proteins were obtained as previously described (Trazzi et al., 2011) and the levels of the following proteins were evaluated: BDNF, TrkB full length (TrkB-FL), phosphorylated TrkB (p-TrkB), the truncated form 1 of the TrkB receptor (TrkB-T1), phosphorylated ERK1 (p-ERK1), phosphorylated ERK2 (p-ERK2), ERK1, ERK2, synaptophysin (SYN), GAPDH and α-Tubulin using the antibodies reported in Table 1. Densitometric analysis of digitized images with ChemiDoc XRS+ was performed with Image Lab software (Bio-Rad Laboratories, Hercules, Calif., USA) and intensity for each band was normalized to the intensity of the corresponding GAPDH or α-Tubulin band.

[4] = target: TrkB receptor (Homo sapiens, UniProt Q16620); conditions: Liu et al., 2010 and 2013; cited from earlier work
[5] = dose of 5.0 mg/kg, Liu et al., 2010; cited from earlier work

Chain of TrkB receptor (Q16620 32-822): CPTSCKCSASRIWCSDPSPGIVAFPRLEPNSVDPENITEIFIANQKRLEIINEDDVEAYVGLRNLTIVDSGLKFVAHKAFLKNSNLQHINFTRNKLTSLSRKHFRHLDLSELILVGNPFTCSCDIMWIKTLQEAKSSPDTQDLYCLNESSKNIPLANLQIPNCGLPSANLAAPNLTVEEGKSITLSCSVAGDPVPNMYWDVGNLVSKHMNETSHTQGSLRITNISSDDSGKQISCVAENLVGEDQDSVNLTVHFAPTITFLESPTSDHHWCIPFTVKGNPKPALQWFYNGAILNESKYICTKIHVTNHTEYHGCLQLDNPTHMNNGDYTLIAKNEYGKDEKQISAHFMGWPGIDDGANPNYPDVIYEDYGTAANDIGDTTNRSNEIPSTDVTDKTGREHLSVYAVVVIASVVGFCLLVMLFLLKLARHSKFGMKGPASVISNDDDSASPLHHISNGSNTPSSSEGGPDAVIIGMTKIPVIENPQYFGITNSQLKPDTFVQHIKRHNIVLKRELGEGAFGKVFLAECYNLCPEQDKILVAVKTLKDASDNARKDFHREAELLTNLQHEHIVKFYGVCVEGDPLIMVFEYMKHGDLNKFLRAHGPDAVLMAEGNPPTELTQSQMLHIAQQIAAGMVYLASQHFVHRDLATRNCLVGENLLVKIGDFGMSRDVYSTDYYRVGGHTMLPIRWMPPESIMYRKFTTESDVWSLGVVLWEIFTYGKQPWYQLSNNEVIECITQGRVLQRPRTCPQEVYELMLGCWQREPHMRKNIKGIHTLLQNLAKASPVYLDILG

Q: For `O=c1cc(-c2ccccc2)oc2c(O)c(O)ccc12` [7,8-DHF, 7,8-dihydroxyflavone], which “total number of granule cells” value ([1]; P15 Ts65Dn mice) is on record?
A: became similar to that of untreated euploid mice

Q: And the “total number of granule cells” value ([1]; P15 euploid mice)?
A: no effect on total number of granule cells

Q: What about the “spine density of granule neurons” value ([2]; P15 Ts65Dn mice) of the same molecule?
A: became similar to that of euploid mice

Q: And the “spine density of granule neurons” value ([2]; P15 euploid mice)?
A: no effect on spine density

Q: And the “levels of p-TrkB-FL” value ([3]; P15, both genotypes (euploid and Ts65Dn))?
A: increase in the levels of p-TrkB-FL

Q: What about the “levels of TrkB-FL” value ([3]; P15 Ts65Dn mice) of the same molecule?
A: reduction in the levels of TrkB-FL

Q: And the “levels of TrkB-T1” value ([3]; P15 Ts65Dn mice, vs untreated counterparts and untreated euploid mice)?
A: reduction in the levels of TrkB-T1

Q: What about the “binding to the TrkB receptor” value [4] of the same molecule?
A: high affinity and specificity

Q: And the toxic effects [5]?
A: no toxic effects
